Source: ChEMBL document CHEMBL1151429, “Novel drug resistance pattern associated with the mutations K70G and M184V in human immunodeficiency virus type 1 reverse transcriptase” (2007)

Assays:
Assay type in all cases: functional
[1] = test system: Human immunodeficiency virus 1; assay: Antiviral activity against HIV1 LAI with reverse transcriptase K70E mutation relative to wild type HIV1 LAI
[2] = test system: Human immunodeficiency virus 1; assay: Ratio of IC50 for HIV1 with reverse transcriptase K70G/M184V mutation to IC50 for wild type HIV1
[3] = test system: Human immunodeficiency virus 1; assay: Antiviral activity against HIV1 with reverse transcriptase K70E M184V and K70G M184V mutation by antivirogram biological cutoffs assay relative to wild type HIV1
[4] = test system: Human immunodeficiency virus 1; assay: Ratio of IC50 for HIV1 with reverse transcriptase K70G mutation to IC50 for wild type HIV1
[5] = test system: Human immunodeficiency virus 1; assay: Ratio of IC50 for HIV1 with reverse transcriptase K70E/M184V mutation to IC50 for wild type HIV1

C[C@H](Cn1cnc2c(N)ncnc21)OCP(=O)(O)OP(=O)(O)OP(=O)(O)O
fold change (FC) [1]: 2.1

Nc1nc(NC2CC2)c2ncn([C@H]3C=C[C@@H](CO)C3)c2n1 [ABACAVIR]
Ratio IC50 [2]: 3.2
fold change (FC) [3]: 2.2
Ratio IC50 [4]: 2.1
Ratio IC50 [5]: 1.3

Nc1nc(=O)c2ncn([C@H]3C=C[C@@H](COP(=O)(O)OP(=O)(O)OP(=O)(O)O)C3)c2[nH]1 [CARBOVIR 5'-TRIPHOSPHATE, (-)-]
fold change (FC) [1]: 2.3

O=c1[nH]cnc2c1ncn2[C@H]1CC[C@@H](CO)O1 [DIDANOSINE]
Ratio IC50 [2]: 5.3
fold change (FC) [3]: 2.2
Ratio IC50 [4]: 2.1
Ratio IC50 [5]: 1.6

Nc1nc(=O)n([C@@H]2CS[C@H](CO)O2)cc1F [EMTRICITABINE]
Ratio IC50 [2]: >63.4
fold change (FC) [3]: 3.5
Ratio IC50 [5]: >40.8

Nc1ccn([C@@H]2CS[C@H](COP(=O)(O)OP(=O)(O)OP(=O)(O)O)O2)c(=O)n1 [LAMIVUDINE TRIPHOSPHATE]
fold change (FC) [1]: 3.5

Nc1ccn([C@@H]2CS[C@H](CO)O2)c(=O)n1 [LAMIVUDINE]
fold change (FC) [3]: 2.4

Cc1cn([C@H]2C=C[C@@H](CO)O2)c(=O)[nH]c1=O [STAVUDINE]
Ratio IC50 [2]: 0.9
fold change (FC) [3]: 2.3
Ratio IC50 [4]: 1.3
Ratio IC50 [5]: 0.4

C[C@H](Cn1cnc2c(N)ncnc21)OCP(=O)(O)O [TENOFOVIR ANHYDROUS]
Ratio IC50 [2]: 1.5
fold change (FC) [3]: 2.1
Ratio IC50 [4]: 1.9
Ratio IC50 [5]: 1.7

Cc1cn([C@H]2C[C@H](N=[N+]=[N-])[C@@H](CO)O2)c(=O)[nH]c1=O [ZIDOVUDINE]
Ratio IC50 [2]: <0.8
fold change (FC) [3]: 2.7
Ratio IC50 [5]: <0.3
